Reference: the supplement of paper PMC6965134
± gives the standard deviation of the averaged measurements.

Test: TIMS collisional cross section (CCS, N2) of the lipid ion; higher = larger ion cross section
Conditions: ionization mode: positive, one isomer drawn

Structure (SMILES)	TIMS collisional cross section (sample type: Liver) [Å²]	TIMS collisional cross section (sample type: HeLa) [Å²]	TIMS collisional cross section (sample type: plasma) [Å²]
CCCCC/C=C\C/C=C\C/C=C\C/C=C\CCCC(=O)O[C@H](COC(=O)CCCCCCCCCCCCCCC)COC(=O)CCCCCCCCCCCCCCCCCCCCC [TG 16:0_20:4_22:0] (ion (formula + adduct): [C61H110O6+NH4] 1+)	338.2	–	–
CCCCCCCCCCCCCCCCCCCCCC(=O)OC[C@@H](COC(=O)CCCCCCCCCCCCCCC)OC(=O)CCCCCCCCCCCCCCCCCCCC [TG 16:0_21:0_22:0] (ion (formula + adduct): [C62H120O6+NH4] 1+)	–	346.3	346
CCCCC/C=C\C/C=C\CCCCCCCCCCCC(=O)OC[C@@H](COC(=O)CCCCCCCCCCCCCCC)OC(=O)CCCCCCCCCCCCCCCCCCCC [TG 16:0_21:0_22:2] (ion (formula + adduct): [C62H116O6+NH4] 1+)	–	–	342.3
CC/C=C\C/C=C\C/C=C\C/C=C\C/C=C\C/C=C\CCC(=O)OC[C@@H](COC(=O)CCCCCCCCCCCCCCC)OC(=O)CCCCCCCCCCCCCCCCCCCCC [TG 16:0_22:0_22:6] (ion (formula + adduct): [C63H110O6+NH4] 1+)	340.7	–	–
CC/C=C\C/C=C\C/C=C\C/C=C\C/C=C\C/C=C\CCC(=O)OC[C@@H](COC(=O)CCCCCCCCCCCCCCC)OC(=O)CCCCC/C=C\C/C=C\C/C=C\C/C=C\C/C=C\CC [TG 16:0_22:5_22:6] (ion (formula + adduct): [C63H100O6+NH4] 1+)	–	332.8	–
CC/C=C\C/C=C\C/C=C\C/C=C\C/C=C\C/C=C\CCC(=O)OC[C@@H](COC(=O)CCCCCCCCCCCCCCC)OC(=O)CC/C=C\C/C=C\C/C=C\C/C=C\C/C=C\C/C=C\CC [TG 16:0_22:6_22:6] (ion (formula + adduct): [C63H98O6+NH4] 1+)	331.6	–	–
CCCCC/C=C\C/C=C\CCCCCCCC(=O)OC[C@@H](COC(=O)CCCCCCC/C=C\CCCCCC)OC(=O)CCCCCCC/C=C\CCCCCC [TG 16:1_16:1_18:2] (ion (formula + adduct): [C53H94O6+NH4] 1+)	310.5	311.9	311.2
CC/C=C\C/C=C\C/C=C\C/C=C\C/C=C\C/C=C\CCC(=O)OC[C@@H](COC(=O)CCCCCCC/C=C\CCCCCC)OC(=O)CCCCCCC/C=C\CCCCCC [TG 16:1_16:1_22:6] (ion (formula + adduct): [C57H94O6+NH4] 1+)	317.3	318.5	–
CCCCCC/C=C\CCCCCCCC(=O)OC[C@H](COC(=O)CCCCCCCCCCCCCCCCC)OC(=O)CCCCCCCCCCCCCCCC [TG 16:1_17:0_18:0] (ion (formula + adduct): [C54H102O6+NH4] 1+)	–	320.7	–
CC/C=C\C/C=C\C/C=C\CCCCCCCC(=O)OC[C@@H](COC(=O)CCCCCCC/C=C\CCCCCC)OC(=O)CCCCCCC/C=C\CCCCCCC [TG 16:1_17:1_18:3] (ion (formula + adduct): [C54H94O6+NH4] 1+)	–	314.8	–
CCCCC/C=C\C/C=C\C/C=C\C/C=C\CCCC(=O)OC[C@@H](COC(=O)CCCCCCC/C=C\CCCCCC)OC(=O)CCCCCCCCCCCCCCCCC [TG 16:1_18:0_20:4] (ion (formula + adduct): [C57H100O6+NH4] 1+)	324.7	–	–
CCCCCC/C=C\CCCCCCCC(=O)OC[C@H](COC(=O)CCCCCCCCCCCCCCCCCCCCC)OC(=O)CCCCCCCCCCCCCCCCC [TG 16:1_18:0_22:0] (ion (formula + adduct): [C59H112O6+NH4] 1+)	–	–	335.9
CC/C=C\C/C=C\C/C=C\C/C=C\C/C=C\C/C=C\CCC(=O)OC[C@@H](COC(=O)CCCCCCC/C=C\CCCCCC)OC(=O)CCCCCCCCCCCCCCCCC [TG 16:1_18:0_22:6] (ion (formula + adduct): [C59H100O6+NH4] 1+)	–	327.7	–
CCCCC/C=C\C/C=C\C/C=C\C/C=C\CCCC(=O)OC[C@@H](COC(=O)CCCCCCC/C=C\CCCCCC)OC(=O)CCCCCCC/C=C\CCCCCCCC [TG 16:1_18:1_20:4] (ion (formula + adduct): [C57H98O6+NH4] 1+)	323.5	–	–
CC/C=C\C/C=C\C/C=C\C/C=C\C/C=C\CCCCCC(=O)OC[C@@H](COC(=O)CCCCCCC/C=C\CCCCCC)OC(=O)CCCCCCC/C=C\CCCCCCCC [TG 16:1_18:1_22:5] (ion (formula + adduct): [C59H100O6+NH4] 1+)	–	325.9	327.7
CCCCC/C=C\C/C=C\CCCCCCCC(=O)OC[C@@H](COC(=O)CCCCCCC/C=C\CCCCCC)OC(=O)CCCCCCC/C=C\C/C=C\CCCCC [TG 16:1_18:2_18:2] (ion (formula + adduct): [C55H96O6+NH4] 1+)	315.45 ± 0.49	–	–
CC/C=C\C/C=C\C/C=C\CCCCCCCC(=O)OC[C@@H](COC(=O)CCCCCCC/C=C\CCCCCC)OC(=O)CCCCCCC/C=C\C/C=C\CCCCC [TG 16:1_18:2_18:3] (ion (formula + adduct): [C55H94O6+NH4] 1+)	312.8	–	314.1
CCCCC/C=C\C/C=C\C/C=C\C/C=C\CCCC(=O)OC[C@@H](COC(=O)CCCCCCC/C=C\CCCCCC)OC(=O)CCC/C=C\C/C=C\C/C=C\C/C=C\CCCCC [TG 16:1_20:4_20:4] (ion (formula + adduct): [C59H96O6+NH4] 1+)	–	323	–
CC/C=C\C/C=C\C/C=C\C/C=C\C/C=C\CCCCCC(=O)OC[C@@H](COC(=O)CCCCCCC/C=C\CCCCCC)OC(=O)CCC/C=C\C/C=C\C/C=C\C/C=C\CCCCC [TG 16:1_20:4_22:5] (ion (formula + adduct): [C61H98O6+NH4] 1+)	–	328.2	–
CC/C=C\C/C=C\C/C=C\C/C=C\C/C=C\C/C=C\CCC(=O)OC[C@@H](COC(=O)CCCCCCC/C=C\CCCCCC)OC(=O)CCCCC/C=C\C/C=C\C/C=C\C/C=C\C/C=C\CC [TG 16:1_22:5_22:6] (ion (formula + adduct): [C63H98O6+NH4] 1+)	–	332.4	–

Other lines, results leading:

TIMS collisional cross section (sample type: Liver) [Å²]	TIMS collisional cross section (sample type: HeLa) [Å²]	TIMS collisional cross section (sample type: plasma) [Å²]	Structure (SMILES)
–	313.4	–	CCCCCC/C=C\CCCCCCCC(=O)OC[C@H](COC(=O)CCCCCCC/C=C\CCCCCCCC)OC(=O)CCCCCCC/C=C\CCCCCC [TG 16:1_16:1_18:1] (ion (formula + adduct): [C53H96O6+NH4] 1+)
–	315.7	–	CCCCCC/C=C\CCCCCCCC(=O)OC[C@H](COC(=O)CCCCCCC/C=C\CCCCCCC)OC(=O)CCCCCCCCCCCCCCCC [TG 16:1_17:0_17:1] (ion (formula + adduct): [C53H98O6+NH4] 1+)
–	314.8	–	CCCCCC/C=C\CCCCCCCC(=O)OC[C@H](COC(=O)CCCCCCC/C=C\CCCCCCC)OC(=O)CCCCCCC/C=C\CCCCCCC [TG 16:1_17:1_17:1] (ion (formula + adduct): [C53H96O6+NH4] 1+)
–	318.7	–	CCCCCC/C=C\CCCCCCCC(=O)OC[C@H](COC(=O)CCCCCCCCCCCCCCCCC)OC(=O)CCCCCCC/C=C\CCCCCCC [TG 16:1_17:1_18:0] (ion (formula + adduct): [C54H100O6+NH4] 1+)
–	316.5	–	CCCCCC/C=C\CCCCCCCC(=O)OC[C@H](COC(=O)CCCCCCC/C=C\CCCCCCCC)OC(=O)CCCCCCC/C=C\CCCCCCC [TG 16:1_17:1_18:1] (ion (formula + adduct): [C54H98O6+NH4] 1+)
313.9	315.1	314.6	CCCCC/C=C\C/C=C\CCCCCCCC(=O)OC[C@@H](COC(=O)CCCCCCC/C=C\CCCCCC)OC(=O)CCCCCCC/C=C\CCCCCCC [TG 16:1_17:1_18:2] (ion (formula + adduct): [C54H96O6+NH4] 1+)
319.7	319.7	–	CCCCC/C=C\C/C=C\CCCCCCCC(=O)OC[C@@H](COC(=O)CCCCCCC/C=C\CCCCCC)OC(=O)CCCCCCCCCCCCCCCCC [TG 16:1_18:0_18:2] (ion (formula + adduct): [C55H100O6+NH4] 1+)
328.2	–	–	CCCCCC/C=C\CCCCCCCC(=O)OC[C@H](COC(=O)CCCCCCCCC/C=C\CCCCCCCC)OC(=O)CCCCCCCCCCCCCCCCC [TG 16:1_18:0_20:1] (ion (formula + adduct): [C57H106O6+NH4] 1+)
–	320	320.1	CCCCCC/C=C\CCCCCCCC(=O)OC[C@H](COC(=O)CCCCCCC/C=C\CCCCCCCC)OC(=O)CCCCCCC/C=C\CCCCCCCC [TG 16:1_18:1_18:1] (ion (formula + adduct): [C55H100O6+NH4] 1+)
317.35 ± 0.35	318.2	317.4 ± 0.42	CCCCC/C=C\C/C=C\CCCCCCCC(=O)OC[C@@H](COC(=O)CCCCCCC/C=C\CCCCCC)OC(=O)CCCCCCC/C=C\CCCCCCCC [TG 16:1_18:1_18:2] (ion (formula + adduct): [C55H98O6+NH4] 1+)
327	326	–	CCCCCC/C=C\CCCCCCCC(=O)OC[C@H](COC(=O)CCCCCCCCC/C=C\CCCCCCCC)OC(=O)CCCCCCC/C=C\CCCCCCCC [TG 16:1_18:1_20:1] (ion (formula + adduct): [C57H104O6+NH4] 1+)
324.7	–	–	CCCCC/C=C\C/C=C\CCCCCCCCCC(=O)OC[C@@H](COC(=O)CCCCCCC/C=C\CCCCCC)OC(=O)CCCCCCC/C=C\CCCCCCCC [TG 16:1_18:1_20:2] (ion (formula + adduct): [C57H102O6+NH4] 1+)
–	332.3	–	CCCCC/C=C\C/C=C\CCCCCCCCCCCC(=O)OC[C@@H](COC(=O)CCCCCCC/C=C\CCCCCC)OC(=O)CCCCCCC/C=C\CCCCCCCCC [TG 16:1_19:1_22:2] (ion (formula + adduct): [C60H108O6+NH4] 1+)
